Among the test systems are CCRF-CEM; HCT-116; HOP-62; K562; KM12; MCF7; MDA-MB-231; MDA-N; OVCAR-3; OVCAR-5; RPMI-8226; SF-295; SF-539; SK-OV-3; SNB-75; SR; T47D; U-251; UACC-62; UO-31.
Common to all, as to experiment: inhibition of tumour cell growth, NCI panel, 48 h

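Step 1: Grow cells in 96-well plates. Step 2: Expose to compound for 48 hours at 5 concentrations. Step 3: Interpolate endpoints linearly; if unreached, use highest concentration. GI50 is the concentration that inhibits growth by half.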 Active and inactive are the calls of the source. No stated cut-off is given here; in the data, active = GI50 up to about 1.1 µM and inactive = higher.

Take `COC(=O)C1(Cc2ccc3c(c2)CCC3)Cc2cc3c(cc2C1=O)CCC3` (stereo not given): the GI50 in the experiment with CCRF-CEM was 17.7 µM (inactive); in the experiment with HCT-116, 11.4 µM (inactive); in the experiment on HOP-62, > 46.5 µM (inactive); with K562 it was 8.93 µM (inactive); in the experiment on KM12, 18 µM (inactive); with MCF7 it was 21.4 µM (inactive). For the same compound, the GI50 was 24.6 µM (inactive) in the experiment with MDA-MB-231; 13 µM (inactive) with MDA-N; 44.6 µM (inactive) with OVCAR-3; > 46.5 µM (inactive) in the experiment with OVCAR-5; 8.02 µM (inactive) with RPMI-8226; 35.6 µM (inactive) in the experiment with SF-295. The GI50 was > 46.5 µM (inactive) in the experiment on SF-539; > 46.5 µM (inactive) with SK-OV-3; 42.2 µM (inactive) with SNB-75; 11.4 µM (inactive) in the experiment on SR; 10.8 µM (inactive) in the experiment on T47D; 29.4 µM (inactive) with U-251. The GI50 in the experiment on UACC-62 was 37 µM (inactive); in the experiment with UO-31 it was 16 µM (inactive).
In the case of `CC1=NN2C(=N)/C(=C/c3ccc(F)cc3)C(=O)N=C2S1`, the GI50 in the experiment on CCRF-CEM, in the experiment on HCT-116, in the experiment with HOP-62, with K562, in the experiment on KM12 and in the experiment on MCF7 was > 100 µM (inactive) in each case. The GI50 in the experiment with MDA-MB-231, in the experiment with MDA-N, in the experiment with OVCAR-3, with OVCAR-5, with RPMI-8226 and in the experiment with SF-295 was > 100 µM (inactive) in each case. The GI50 in the experiment with SF-539 is > 100 µM (inactive); in the experiment on SK-OV-3, > 100 µM (inactive); in the experiment on SNB-75, > 100 µM (inactive); with SR it was 69.8 µM (inactive); in the experiment on T47D it was > 100 µM (inactive); in the experiment on U-251 it was > 100 µM (inactive). Besides, the GI50 in the experiment on UACC-62 and in the experiment on UO-31 was > 100 µM (inactive) throughout.
On to `COC(=O)[C@]12CC[C@H]3CC[C@H]([C@H]31)[C@H](c1ccccc1)N2`, for which the GI50 is 21.4 µM (inactive) with CCRF-CEM; 15.6 µM (inactive) in the experiment on HCT-116; 17.4 µM (inactive) in the experiment with HOP-62; 14.2 µM (inactive) in the experiment with K562; 18.5 µM (inactive) in the experiment with KM12; 16 µM (inactive) with MCF7. The GI50 with MDA-MB-231 is 16.3 µM (inactive); in the experiment on MDA-N, 17.9 µM (inactive); with OVCAR-3, 15.2 µM (inactive); in the experiment with OVCAR-5 it was 17.3 µM (inactive); with RPMI-8226 it was 14.2 µM (inactive); in the experiment with SF-295 it was 16.3 µM (inactive). Moreover, the GI50 in the experiment with SF-539 was 16.5 µM (inactive); with SK-OV-3, 25.4 µM (inactive); in the experiment with SNB-75, 26.9 µM (inactive); with SR, 12.1 µM (inactive); with T47D it was 16.4 µM (inactive); in the experiment with U-251 it was 17 µM (inactive). In addition, the values for the GI50 with UACC-62 and in the experiment on UO-31 were 14.4 µM (inactive) and 17.4 µM (inactive), respectively.
For the compound `C=C[C@H]1CN2CCc3c([nH]c4c([C@@H]5CCCN5C)c(O)ccc34)[C@@H]2C[C@@H]1C[C@H]1c2[nH]c3ccccc3c2CCN1C`, the GI50 was 0.00427 µM (active) in the experiment with CCRF-CEM; 0.366 µM (active) with HCT-116; 1.35 µM (inactive) in the experiment with HOP-62; 0.211 µM (active) with K562; 1.47 µM (inactive) in the experiment on KM12; 1.96 µM (inactive) in the experiment with MCF7. Further, the GI50 is 1.76 µM (inactive) in the experiment with MDA-MB-231; 1.67 µM (inactive) in the experiment with MDA-N; 1.64 µM (inactive) in the experiment on OVCAR-3; 1.79 µM (inactive) in the experiment with OVCAR-5; 0.478 µM (active) with RPMI-8226; 1.57 µM (inactive) in the experiment with SF-295. Besides, the GI50 was 1.64 µM (inactive) in the experiment with SF-539; 1.7 µM (inactive) in the experiment with SK-OV-3; 1.22 µM (inactive) in the experiment with SNB-75; 0.256 µM (active) with SR; 1.95 µM (inactive) in the experiment on T47D; 1.38 µM (inactive) in the experiment with U-251. Besides, the figures for the GI50 in the experiment on UACC-62 and in the experiment with UO-31 were 1.83 µM (inactive) and 1.63 µM (inactive), respectively.
As for `NC(Cc1ccnnc1)C(=O)O` (stereo not given), the GI50 in the experiment on CCRF-CEM, with HCT-116, in the experiment on HOP-62, with K562, in the experiment on KM12 and with MCF7 was > 100 µM (inactive) in each case. For the same compound, the GI50 in the experiment on MDA-MB-231, in the experiment with MDA-N, in the experiment with OVCAR-3, in the experiment with OVCAR-5, with RPMI-8226 and in the experiment on SF-295 was > 100 µM (inactive) in each case. The GI50 in the experiment on SF-539, in the experiment on SK-OV-3, with SNB-75, in the experiment on SR, in the experiment on T47D and in the experiment with U-251 was > 100 µM (inactive) throughout. In addition, the GI50 with UACC-62 and in the experiment with UO-31 was > 100 µM (inactive) throughout.
As for `C[C@@H](C[C@H]1OC(C)(C)O[C@@H]1C(C)(C)O)[C@H]1CC=C2[C@]3(C)[C@H](O)C[C@H]4C(C)(C)[C@H](O)CC[C@]4(C)[C@H]3CC[C@]21C`, the GI50 with CCRF-CEM is 5.64 µM (inactive); in the experiment on HCT-116 it was 5.86 µM (inactive); in the experiment on HOP-62 it was 12.8 µM (inactive); in the experiment on K562, 3.99 µM (inactive); in the experiment with KM12, 6.21 µM (inactive); with MCF7, 2.12 µM (inactive). For the same compound, the GI50 was 7.93 µM (inactive) in the experiment on MDA-MB-231; 8.85 µM (inactive) in the experiment on MDA-N; 7.91 µM (inactive) with OVCAR-3; 8.69 µM (inactive) in the experiment with OVCAR-5; 4.03 µM (inactive) in the experiment on RPMI-8226; 9.14 µM (inactive) in the experiment on SF-295. The GI50 with SF-539 was 11.9 µM (inactive); in the experiment on SK-OV-3, 12.5 µM (inactive); in the experiment with SNB-75 it was 9.79 µM (inactive); in the experiment on SR it was 4.76 µM (inactive); with T47D, 7.73 µM (inactive); in the experiment with U-251 it was 6.84 µM (inactive). Besides, the figures for the GI50 with UACC-62 and with UO-31 were 11.5 µM (inactive) and 8.93 µM (inactive), respectively.
`C=C(C)C(=O)OC1C[C@H](COC(C)=O)C2CC=C(CO)C2C2OC(=O)C(=C)[C@H]12` (stereo not given in full): the GI50 is 10.4 µM (inactive) in the experiment on CCRF-CEM; 18.3 µM (inactive) in the experiment with HCT-116; > 100 µM (inactive) in the experiment with HOP-62; 14.9 µM (inactive) in the experiment on K562; > 100 µM (inactive) with KM12; 38.1 µM (inactive) in the experiment on MCF7. Further, the GI50 in the experiment on MDA-MB-231 was 51.8 µM (inactive); with MDA-N, 34.5 µM (inactive); with OVCAR-3, 42.4 µM (inactive); in the experiment with OVCAR-5 it was > 100 µM (inactive); in the experiment with RPMI-8226 it was 12.4 µM (inactive); with SF-295, > 100 µM (inactive). Also, the GI50 in the experiment on SF-539 is > 100 µM (inactive); in the experiment on SK-OV-3 it was > 100 µM (inactive); in the experiment with SNB-75 it was 69.2 µM (inactive); in the experiment on SR it was 23.2 µM (inactive); in the experiment with T47D, 34.8 µM (inactive); with U-251, > 100 µM (inactive). Besides, the GI50 in the experiment on UACC-62 is 39.6 µM (inactive); in the experiment on UO-31, 39.2 µM (inactive).

The record behind these values is ChEMBL document CHEMBL1201862, “PubChem BioAssay data set” (2004).
